Data published in PMC9855884, “Glycosylated Lipopeptides—Synthesis and Evaluation of Antimicrobial Activity and Cytotoxicity” (Biomolecules, 2023).
Converted amounts (≈) assume the structure as drawn. Where a SMILES comes first, the peptide text is derived from it. The star is where a group is joined. βGlcNAc = CC(=O)N[C@@H]1[C@@H](O)[C@H](O)[C@@H](CO)O[C@H]1*; Stearoyl = CCCCCCCCCCCCCCCCCC(=O)*

How the values were obtained:
K. aerogenes ATCC 13048 = type: cell-based, Klebsiella aerogenes; conditions: ATCC 13048, 18 h
Experimental: (§1) The Acinetobacter baumannii ATCC BAA-1605, Enterococcus faecium ATCC 700221, Klebsiella aerogenes ATCC 13048, Klebsiella pneumoniae ATCC 700603, Pseudomonas aeruginosa ATCC 9027, Staphylococcus aureus ATCC 33591, Candida glabrata ATCC 15126, strains were acquired from the American Type Culture Collection (ATCC). All the strains were stored at −80 °C in Roti-Store cryo vials and were transferred into fresh Mueller–Hinton broth (MHB, Becton Dickinson, Warsaw, Poland) for bacteria or RPMI-1640 (Sigma-Aldrich, Steinheim, Germany) for fungi before the tests and incubated for 24 h at 37 °C. Then, the cultures were seeded on the Mueller–Hinton agar (BioMaxima, Lublin, Poland) or Sabouraud dextrose agar (SDA, BioMaxima, Lublin, Poland) plates, respectively, and incubated as just mentioned. These agar cultures were used for further microbiological assays. Cell densities for all assays were adjusted spectrophotometrically (Multiskan GO Microplate Spectrophotometer, Thermo Fisher Scientific, Vantaa, Finland) at 600 and 530 nm for bacteria and fungi, respectively.
(§2) The MICs were determined using a broth microdilution method according to the Clinical and Laboratory Standard Institute guidelines. For this purpose, initial inoculums of bacteria (5 × 10^5 CFU/mL) in MHB and yeasts (2 × 10^3 CFU/mL) in RPMI-1640 with 2% D-glucose were exposed to the ranging concentration of lipopeptides (1–512 μg/mL) and incubated at 37 °C for 18 h and 24 h, respectively. The experiments were conducted on 96-well microtiter polystyrene plates (Kartell, Italy). The growth was assessed visually after incubation and the MIC was assumed as the lowest peptide concentration at which a noticeable growth of microorganisms was inhibited. All experiments were conducted in triplicate.

[1] = Determination of peptide hydrophobicity with RP-HPLC (adjusted retention time); type: physicochemical; conditions: RP-HPLC as measure of hydrophobicity; Waters X-Bridge Shield RP-18 3.0 × 100 mm, 3.5 μm; linear 20–80% acetonitrile in water over 30 min, 0.1% TFA; 0.5 mL/min; 25.0 °C; peptide 1 g/L in water (0.1% TFA); UV 214 nm; triplicate
Experimental: To determine peptide hydrophobicity, a Waters Alliance e2695 system with a Waters 2998 PDA Detector was used. All analyses were carried out on a Waters X-Bridge Shield RP-18 column (3.0 × 100 mm, 3.5 μm particle size, 130 Å pore size). The peptides were dissolved in water (0.1% TFA, v/v) up to a concentration of 1 g/L. UV detection at 214 nm was used, and samples (10 μL) were eluted with a linear 20–80% acetonitrile gradient in deionized water over 30 min at 25.0 ± 0.1 °C. The mobile phase flow rate was 0.5 mL/min. Both eluents contained 0.1% (v/v) of TFA. Each peptide sample was analyzed in triplicate. Maximum standard deviation and coefficient of variation were 0.046 and 0.23%, respectively.
After synthesis and purification, all the products were analyzed with MS and HPLC to confirm purity and identity of the compounds. […] The chromatographic analyses were performed with RP-HPLC; retention time refers to hydrophobicity of the lipopeptide.

[2] = tested on: A. baumannii ATCC BAA 1605; type: cell-based, Acinetobacter baumannii; conditions: ATCC BAA 1605, 18 h
Experimental: as §1, §2

[3] = tested on: K. pneumoniae ATCC 700603; type: cell-based, Klebsiella pneumoniae; conditions: ATCC 700603, 18 h
Experimental: as §1, §2

MTT assay, cytotoxicity = type: cell-based, human; conditions: human, HaCaT keratinocytes, 24 h incubation at 37 °C, 0.5–500 μg/mL, six replicates per concentration, repeated at least twice
Experimental: To evaluate the cytotoxicity of the test peptides (IC50), the classic MTT assay on 96-well plates was performed for human keratinocytes (HaCaT) which were acquired from the ATCC. The assay was based on colorimetric determination of the cell metabolic activity where the color intensity reflected the number of live cells that could be measured spectrophotometrically. The cell line was cultured in a Dulbecco’s modified Eagle Medium (Invitrogen) supplemented with 10% fetal bovine serum (v/v), 100 units/mL of penicillin, 100 μg/mL of streptomycin, and 2 mM L-glutamine and was kept at 37 °C in a humidified 5% CO2 incubator. Briefly, a day after plating of 500 cells per well, a series of concentrations (0.5–500 μg/mL) of the test compounds were applied. DMSO was added to the control cells at a final concentration of 1.0% (v/v), which was related to the maximum concentration of the solvent compounds used in the experiment. After 24 h of incubation at 37 °C (humidified 5% CO2 incubator) with the peptides, a medium containing 1 mg/mL of MTT was added to the wells up to a final concentration of 0.5 mg/mL. Subsequently, the plates were incubated at 37 °C for 4 h. Then, the medium was aspirated, and the formazan product was solubilized with DMSO. The background absorbance at 630 nm was subtracted from that at 570 nm for each well (Epoch, BioTek Instruments, Winooski, VT, USA). Six replicates were conducted for each concentration. All experiments were repeated at least twice and the resulting IC50 values were calculated with a GraFit 7 software (v. 7.0, Erithacus, Berkley, CA, USA).
The selectivity indexes were calculated for all the strains as IC50/MIC. According to IC50, in most cases, glycosylation caused only a slight decrease in toxicity. However, in contrast with SI calculated for HC50, the differences between USCLs and gUSCLs are not so distinct. […] Moreover, toxicity of USCLs and gUSCLs is high and exceeds their antimicrobial activity. The lipopetides were not selective against Gram-negative strains (K. pneumoniae, A. baumannii, P. aeruginosa, K. aerogenes) over human cells. A few USCLs were selective (SI > 1) against E. faecium and S. aureus with SI up to 1.87; and some gUSCLs were selective against E. faecium but not against S. aureus, with SI between 0.63 and 1.73. […] In this case, SI of gUSCLs was noticeably […] than that of corresponding parent USCLs (2.07, 1.99, 2.67 vs. 2.53, 2.36, 3.46, respectively). Selectivity indexes were plotted against adjusted retention time (Figures S15–S21). A moderate linear correlation was found in USCLs and K. pneumoniae, C. glabrata, and gUSCLs and K. pneumoniae, K. aerogenes (R^2 between 0.6064 and 0.6481). A relatively high linear correlation was obtained for USCLs and K. aerogenes (R^2 of 0.8214) and also for gUSCLs and C. glabrata (R^2 of 0.9223).

MIC (K. aerogenes ATCC 13048) | Adjusted Retention Time [1] | MIC [2] | MIC [3] | SMILES | IC50 at 24 h (MTT assay, cytotoxicity)
32 mg/L (≈ 36.1 µM) | 22.12 min | 16 mg/L (≈ 18.1 µM) | 64 mg/L (≈ 72.2 µM) | CCCCCCCCCCCCCCCCCC(=O)N[C@@H](CO[C@@H]1O[C@H](CO)[C@@H](O)[C@H](O)[C@H]1NC(C)=O)C(=O)N[C@@H](CCCNC(=N)N)C(=O)N[C@@H](CCCNC(=N)N)C(N)=O [Peptide 16, C18-S(GlcNAc)RR-NH2] (Stearoyl-Ser(βGlcNAc)-Arg-Arg-NH2) | 10.1 ± 0.66 mg/L (≈ 11.4 µM)
32 mg/L (≈ 36.1 µM) | 22.50 min | 16 mg/L (≈ 18.1 µM) | 16 mg/L (≈ 18.1 µM) | CCCCCCCCCCCCCCCCCC(=O)N[C@@H](CCCNC(=N)N)C(=O)N[C@@H](CO[C@@H]1O[C@H](CO)[C@@H](O)[C@H](O)[C@H]1NC(C)=O)C(=O)N[C@@H](CCCNC(=N)N)C(N)=O [Peptide 17, C18-RS(GlcNAc)R-NH2] (Stearoyl-Arg-Ser(βGlcNAc)-Arg-NH2) | 9.45 ± 0.89 mg/L (≈ 10.7 µM)
32 mg/L (≈ 36.1 µM) | 22.67 min | 32 mg/L (≈ 36.1 µM) | 32 mg/L (≈ 36.1 µM) | CCCCCCCCCCCCCCCCCC(=O)N[C@@H](CCCNC(=N)N)C(=O)N[C@@H](CCCNC(=N)N)C(=O)N[C@@H](CO[C@@H]1O[C@H](CO)[C@@H](O)[C@H](O)[C@H]1NC(C)=O)C(N)=O [Peptide 18, C18-RRS(GlcNAc)-NH2] (Stearoyl-Arg-Arg-Ser(βGlcNAc)-NH2) | 13.8 ± 1.71 mg/L (≈ 15.6 µM)
